The source of these data is patent US20220289657A1, “COMPOSITION FOR PREVENTING OR TREATING BACTERIAL INFECTIOUS DISEASE COMPRISING 4-GINGEROL DERIVATIVE COMPOUND AS ACTIVE INGREDIENT” (KOREA UNIVERSITY RESEARCH AND BUSINESS FOUNDATION, SEJONG …, priority 2019, published 2022).

The assay deals with T1, RhlR (Pseudomonas aeruginosa, UniProt P54292).
T1 construct: expressed in transfected cells; host or cells: E. coli sdiA variant co-transformed with pJN105R and pSC11 (RhlA::lacZ)
Kind of assay: cell-based. Conditions: footnotes not given; for Relative RhlR activity Antagonism: Table 2; for Relative RhlR activity Antagonism / remaining activity at 100 µM: 100 μM per Table 3, lower = stronger antagonism; for activity at 100 µM: read-out: Relative RhlR activity Agonism, Table 2, matches the 100 column of Table 3; for remaining activity at 100 µM: read-out: Relative RhlR activity Antagonism, Table 2. The procedure: Escherichia coli (E. coli) DH5a includes LuxR homolog SdiA detecting endogenous AHL synthesized by other microbial species, particularly, BHL.
For RhlR reporter strain analysis, the present invention used pJN105R (RhlR expression plasmid), anspSC11 (RhlA::lacZ fusion plasmid) and an sdiA variant co-transformed with the two plasmids. 1% of an overnight-cultured reporter strain (OD 595 nm=1.0) supplemented with 10 μg/mL gentamicin and 50 μg/mL ampicillin was cultured in a Luria-Bertani (LB) medium (Difco, Detroit, Mich., USA) with a positive control or a compound (0-1000 μM) and BHL (0-10 μM) (Sigma-Aldrich) at 37° C. for 2 hours. 0.4% arabinose (Sigma-Aldrich) was reacted with the resulting product at 37° C. for 1.5 hours. β-galactosidase activity was evaluated using a Tropix plus kit (Applied Biosystems, CA, USA), and OD 595 nm and luminescence were measured using a VICTOR x5 multimode plate reader (PerkinElmer, Waltham, Mass., USA). Relative RhlR activity was quantified by measuring luminescence at OD 595 nm. In addition, for LasR reporter strain analysis, the present invention used pJN105L (LasR expression plasmid) and pSC11 (lasI::lacZ fusion plasmid), E. coli DH5a co-transformed with the two plasmids, and OdDHL (Sigma-Aldrich).

SMILES strings stand for the structures. Marks after values point to notes of the source that are not given here.

T1 sequence (P54292 whole entry): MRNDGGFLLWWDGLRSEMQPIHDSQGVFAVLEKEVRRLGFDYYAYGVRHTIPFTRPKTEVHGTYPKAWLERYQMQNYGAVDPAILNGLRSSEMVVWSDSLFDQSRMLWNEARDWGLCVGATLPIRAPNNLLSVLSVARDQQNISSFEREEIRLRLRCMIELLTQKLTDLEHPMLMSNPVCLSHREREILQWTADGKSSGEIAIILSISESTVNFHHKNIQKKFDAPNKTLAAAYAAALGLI

Regarding `CCCC(O)CC(=O)/C=C/c1ccc(C)c(C)c1` (stereo not drawn) [Compound 11p, (E)-1-(3,4-Dimethylphenyl)-5-hydroxyoct-1-en-3-one], the “Relative RhlR activity Antagonism” value is reported as 72** %, the activity at 100 µM came out at 2% and the remaining activity at 100 µM was found to be 72%.

`CCCC(O)CC(=O)/C=C/c1ccc(F)c(OC)c1` (stereo not drawn) [Compound 11q, (E)-1-(4-Fluoro-3-methoxyphenyl)-5-hydroxyoct-1-en-3-one]: the “Relative RhlR activity Antagonism” value is 43** %, the activity at 100 µM amounted to 1% and the remaining activity at 100 µM was determined as 43%.

`CCCC(O)CC(=O)/C=C/c1cc(F)cc(OC)c1` (stereo not drawn) [Compound 11r, (E)-1-(3-Fluoro-5-methoxyphenyl)-5-hydroxyoct-1-en-3-one]: the “Relative RhlR activity Antagonism” value is recorded as 74** %, the activity at 100 µM was 3% and the remaining activity at 100 µM came out at 74%.

Turning to `CCCC(O)CC(=O)CCc1ccccc1` (stereo not drawn) [Compound 12b, 5-Hydroxy-1-phenyloctan-3-one], the activity at 100 µM came out at 4% and the remaining activity at 100 µM stood at 88%.

For the compound `CCCC(O)CC(=O)CCc1cccc(OC)c1` (stereo not drawn) [Compound 12c, 5-Hydroxy-1-(3-methoxyphenyl)octan-3-one], the activity at 100 µM turned out to be 2% and the remaining activity at 100 µM turned out to be 90%.

Take `CCCC(O)CC(=O)CCc1ccc(O)cc1` (stereo not drawn) [Compound 12d, 5-Hydroxy-1-(4-hydroxyphenyl)octan-3-one]: the activity at 100 µM was found to be 3% and the remaining activity at 100 µM is 64%.

As for `CCCC(O)CC(=O)CCc1cccc(O)c1` (stereo not drawn) [Compound 12e, 5-Hydroxy-1-(3-hydroxyphenyl)octan-3-one], the activity at 100 µM amounted to 2% and the remaining activity at 100 µM was 81%.

On to `CCCC(O)CC(=O)CCc1ccc(OC)cc1` (stereo not drawn) [Compound 12f, 5-Hydroxy-1-(4-methoxyphenyl)octan-3-one], for which the activity at 100 µM was 2% and the remaining activity at 100 µM amounted to 71%.

With `CCCC(O)CC(=O)CCc1ccc(F)cc1` (stereo not drawn) [Compound 12g, 1-(4-Fluorophenyl)-5-hydroxyoctan-3-one], the activity at 100 µM came out at 2% and the remaining activity at 100 µM was determined as 51%.

For the compound `CCCC(O)CC(=O)CCc1ccc(Cl)cc1` (stereo not drawn) [Compound 12h, 1-(4-Chlorophenyl)-5-hydroxyoctan-3-one], the activity at 100 µM was determined as 2% and the remaining activity at 100 µM amounted to 69%.

Regarding `CCCC(O)CC(=O)CCc1ccc(C)cc1` (stereo not drawn) [Compound 12i, 5-Hydroxy-1-(p-tolyl)octan-3-one], the activity at 100 µM was 1% and the remaining activity at 100 µM stood at 76%.

For the compound `CCCC(O)CC(=O)CCc1ccc(N(C)C)cc1` (stereo not drawn) [Compound 12j, 1-(4-(Dimethylamino)phenyl)-5-hydroxyoctan-3-one], the activity at 100 µM stood at 1% and the remaining activity at 100 µM worked out at 74%.

Turning to `CCCC(O)CC(=O)CCc1ccc(O)c(O)c1` (stereo not drawn) [Compound 12k, 1-(3,4-Dihydroxyphenyl)-5-hydroxyoctan-3-one], the activity at 100 µM was determined as 2% and the remaining activity at 100 µM was found to be 47%.

On to `CCCC(O)CC(=O)CCc1ccc(OC)c(OC)c1` (stereo not drawn) [Compound 12l, 1-(3,4-Dimethoxyphenyl)-5-hydroxyoctan-3-one], for which the activity at 100 µM came out at 1% and the remaining activity at 100 µM worked out at 94%.

For `CCCC(O)CC(=O)CCc1ccc(O)c(F)c1` (stereo not drawn) [Compound 12m, 1-(3-Fluoro-4-hydroxyphenyl)-5-hydroxyoctan-3-one], the activity at 100 µM stood at 1% and the remaining activity at 100 µM was 73%.

Consider `CCCC(O)CC(=O)CCc1ccc(O)c(OCC)c1` (stereo not drawn) [Compound 12n, 1-(3-Ethoxy-4-hydroxyphenyl)-5-hydroxyoctan-3-one], for which the activity at 100 µM is 1% and the remaining activity at 100 µM turned out to be 98%.

Regarding `CCCC(O)CC(=O)CCc1ccc(F)c(F)c1` (stereo not drawn) [Compound 12o, 1-(3,4-Difluorophenyl)-5-hydroxyoctan-3-one], the activity at 100 µM was 1% and the remaining activity at 100 µM amounted to 49%.

Regarding `CCCC(O)CC(=O)CCc1ccc(C)c(C)c1` (stereo not drawn) [Compound 12p, 1-(3,4-Dimethylphenyl)-5-hydroxyoctan-3-one], the activity at 100 µM was found to be 3% and the remaining activity at 100 µM worked out at 82%.

In the case of `CCCC(O)CC(=O)CCc1ccc(F)c(OC)c1` (stereo not drawn) [Compound 12q, 1-(4-Fluoro-3-methoxyphenyl)-5-hydroxyoctan-3-one], the activity at 100 µM was determined as 1% and the remaining activity at 100 µM worked out at 79%.

In the case of `CCCC(O)CC(=O)CCc1cc(F)cc(OC)c1` (stereo not drawn) [Compound 12r, 1-(3-Fluoro-5-methoxyphenyl)-5-hydroxyoctan-3-one], the activity at 100 µM was 3% and the remaining activity at 100 µM is 85%.

Take `CCCCCC(=O)/C=C/c1ccc(O)c(OC)c1` [Compound 13b, (E)-1-(4-Hydroxy-3-methoxyphenyl)oct-1-en-3-one]: the “Relative RhlR activity Antagonism” value is 41** %, the activity at 100 µM worked out at 2% and the remaining activity at 100 µM turned out to be 41%.

For the compound `CCCCCC(=O)CCc1ccc(F)c(F)c1` [Compound 14a, 1-(3,4-Difluorophenyl)octan-3-one], the activity at 100 µM is 4% and the remaining activity at 100 µM was found to be 55%.

Consider `CCCCCC(=O)CCc1ccc(O)c(OC)c1` [Compound 14b, 1-(4-Hydroxy-3-methoxyphenyl)octan-3-one], for which the “Relative RhlR activity Antagonism” value is recorded as 49** %, the activity at 100 µM came to 2% and the remaining activity at 100 µM was 49%.

`CCCCCC(O)/C=C/c1ccc(F)c(F)c1` (stereo not drawn) [Compound 15a, (E)-1-(3,4-Difluorophenyl)oct-1-en-3-ol]: the activity at 100 µM turned out to be 5% and the remaining activity at 100 µM was determined as 55%.

In the case of `CCCCCC(O)/C=C/c1ccc(O)c(OC)c1` (stereo not drawn) [Compound 15b, (E)-4-(3-Hydroxyoct-1-en-1-yl)-2-methoxyphenol], the “Relative RhlR activity Antagonism” value was 41** %, the activity at 100 µM was determined as 2% and the remaining activity at 100 µM amounted to 41%.

As for `CCCCCC(O)CCc1ccc(F)c(F)c1` (stereo not drawn) [Compound 16a, 1-(3,4-Difluorophenyl)octan-3-ol], the activity at 100 µM is 5% and the remaining activity at 100 µM worked out at 61%.

Take `CCCCCC(O)/C=C\c1ccc(O)c(OC)c1` (stereo not drawn) [Compound 25, (Z)-4-(3-Hydroxyoct-1-en-1-yl)-2-methoxyphenol]: the “Relative RhlR activity Antagonism” value is recorded as 79** %, the activity at 100 µM is 3% and the remaining activity at 100 µM came out at 79%.

In the case of `CCCCCC(O)CCc1ccc(O)c(OC)c1` (stereo not drawn) [Compound 27], the “Relative RhlR activity Antagonism” value is 45** %, the activity at 100 µM was determined as 2% and the remaining activity at 100 µM is 45%.

Take `CCCC[C@@H](O)C#Cc1ccc(F)c(F)c1` [Compound 34b, (R)-1-(3,4-Difluorophenyl)hept-1-yn-3-ol]: the activity at 100 µM came out at 3% and the remaining activity at 100 µM was 67%.

As to `CCCC[C@H](O)C#Cc1ccc(F)c(F)c1` [Compound 34c, (S)-1-(3,4-Difluorophenyl)hept-1-yn-3-ol], the activity at 100 µM worked out at 2% and the remaining activity at 100 µM worked out at 64%.

Regarding `CCCCC[C@@H](O)C#Cc1ccc(F)c(F)c1` [Compound 35b, (R)-1-(3,4-Difluorophenyl)oct-1-yn-3-ol], the activity at 100 µM was found to be 3% and the remaining activity at 100 µM was 72%.

`CCCCC[C@H](O)C#Cc1ccc(F)c(F)c1` [Compound 35c, (S)-1-(3,4-Difluorophenyl)oct-1-yn-3-ol]: the activity at 100 µM came to 4% and the remaining activity at 100 µM was found to be 67%.
